Laboratory results taken from ChEMBL document CHEMBL4476867, “Hydroxy formamide derivatives and their use” (2016).

How the values were obtained:
Tolloid-like protein 2 = target: T1, Tolloid-like protein 2 (Homo sapiens, UniProt Q9Y6L7); assay: Inhibition of C-terminal Avi-6x-His epitope tagged and N-terminal human RAGE signal sequence tagged recombinant human TLL2 (26 to 1015 amino acids) expressed in CHOE1A cells incubated for 60 mins with promyostatin peptide substrate by FRET based assay; type: cell-based
T1 sequence (Q9Y6L7 whole entry): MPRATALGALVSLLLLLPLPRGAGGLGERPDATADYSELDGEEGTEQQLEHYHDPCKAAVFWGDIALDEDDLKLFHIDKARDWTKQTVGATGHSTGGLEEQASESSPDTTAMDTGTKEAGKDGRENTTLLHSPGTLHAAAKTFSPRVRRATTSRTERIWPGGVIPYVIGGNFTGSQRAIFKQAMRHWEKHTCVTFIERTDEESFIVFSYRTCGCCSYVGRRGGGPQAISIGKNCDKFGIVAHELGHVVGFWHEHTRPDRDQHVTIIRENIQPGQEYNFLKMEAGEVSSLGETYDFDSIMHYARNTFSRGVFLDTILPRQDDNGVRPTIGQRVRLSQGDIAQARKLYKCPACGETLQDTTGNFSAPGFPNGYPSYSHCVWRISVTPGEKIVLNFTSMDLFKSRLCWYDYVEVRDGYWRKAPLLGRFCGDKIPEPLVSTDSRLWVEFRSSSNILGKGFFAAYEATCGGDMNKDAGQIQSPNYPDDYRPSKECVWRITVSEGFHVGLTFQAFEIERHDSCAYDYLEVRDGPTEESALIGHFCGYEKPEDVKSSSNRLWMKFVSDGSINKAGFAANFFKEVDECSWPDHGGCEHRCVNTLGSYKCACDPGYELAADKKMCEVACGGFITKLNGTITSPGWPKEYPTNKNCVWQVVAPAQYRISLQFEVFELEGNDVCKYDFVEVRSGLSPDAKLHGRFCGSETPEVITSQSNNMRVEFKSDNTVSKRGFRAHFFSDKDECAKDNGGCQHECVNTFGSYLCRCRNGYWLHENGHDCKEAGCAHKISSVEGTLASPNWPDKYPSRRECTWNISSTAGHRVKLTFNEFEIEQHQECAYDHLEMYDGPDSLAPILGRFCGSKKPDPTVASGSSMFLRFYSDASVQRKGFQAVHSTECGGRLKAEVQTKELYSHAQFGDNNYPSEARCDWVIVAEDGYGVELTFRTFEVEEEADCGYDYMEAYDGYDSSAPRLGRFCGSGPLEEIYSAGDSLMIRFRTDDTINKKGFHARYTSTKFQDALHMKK

[1] = Reduction in PICP levels in human cardiac fibroblasts incubated for 24 to 48 hrs by ELISA; type: functional
Summary of the method: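 Human cardiac fibroblasts at passage 6 or below were plated in 96-well plates at 10,000 to 15,000 cells per well. On the following day, cells were treated for 24 to 48 hr at 37° C in ficoll crowding EMEM containing 100 μM ascorbic acid, with DMSO kept under 0.3%. A Quidel ELISA measured procollagen I C-terminal propeptide released into the medium, and IC50 values were derived in GraphPad Prism by fitting levels, expressed relative to untreated controls, to a log(inhibitor)-response equation.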

[2] = target: T2, Bone morphogenetic protein 1 (Homo sapiens, UniProt P13497); assay: Inhibition of C-terminal FLAG-6x-His epitope tagged and N-terminal human RAGE signal sequence tagged human BMP1 (23 to 721 amino acids) expressed in CHO-E1 cells pre-incubated for 10 mins before promyostatin peptide substrate addition and measured after 30 mins using 50 nM BMP1 by FRET based assay; type: cell-based
T2 sequence (P13497 whole entry): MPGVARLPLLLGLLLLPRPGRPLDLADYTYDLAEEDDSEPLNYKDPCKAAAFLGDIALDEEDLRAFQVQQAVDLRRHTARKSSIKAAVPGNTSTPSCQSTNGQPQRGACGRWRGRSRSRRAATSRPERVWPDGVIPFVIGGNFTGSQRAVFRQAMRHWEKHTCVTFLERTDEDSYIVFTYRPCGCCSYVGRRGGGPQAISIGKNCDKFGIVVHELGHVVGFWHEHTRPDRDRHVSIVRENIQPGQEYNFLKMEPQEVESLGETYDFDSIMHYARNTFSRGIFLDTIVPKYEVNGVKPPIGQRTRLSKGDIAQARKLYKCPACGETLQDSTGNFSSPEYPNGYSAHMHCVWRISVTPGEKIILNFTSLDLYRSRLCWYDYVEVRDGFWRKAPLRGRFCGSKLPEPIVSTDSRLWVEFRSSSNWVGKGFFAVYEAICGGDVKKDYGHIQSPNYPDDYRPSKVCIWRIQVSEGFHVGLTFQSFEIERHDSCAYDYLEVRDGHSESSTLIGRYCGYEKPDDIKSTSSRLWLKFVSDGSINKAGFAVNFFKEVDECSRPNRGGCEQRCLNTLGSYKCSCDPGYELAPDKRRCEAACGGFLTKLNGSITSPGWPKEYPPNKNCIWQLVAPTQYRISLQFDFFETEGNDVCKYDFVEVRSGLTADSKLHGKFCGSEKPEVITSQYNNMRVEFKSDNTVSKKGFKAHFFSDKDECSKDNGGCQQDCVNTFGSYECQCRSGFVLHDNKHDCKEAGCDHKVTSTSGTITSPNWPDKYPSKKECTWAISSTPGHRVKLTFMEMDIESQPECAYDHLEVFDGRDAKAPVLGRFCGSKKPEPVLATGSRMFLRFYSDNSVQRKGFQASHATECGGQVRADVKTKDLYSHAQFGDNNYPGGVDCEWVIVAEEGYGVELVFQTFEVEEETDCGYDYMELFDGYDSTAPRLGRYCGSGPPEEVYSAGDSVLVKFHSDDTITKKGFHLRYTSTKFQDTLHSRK

Tolloid-like protein 1 = Tolloid-like protein 1 (Homo sapiens, UniProt O43897, I156V/N221S/V284A); assay: Inhibition of recombinant human TLL1 I156V/N221S/V284A mutant expressed in CHOE1A cells pre-incubated for 10 mins before promyostatin peptide substrate addition and measured after 60 mins by FRET based assay; type: cell-based
Sequence of Tolloid-like protein 1 (O43897 148-1013 I156V/N221S/V284A limits assumed): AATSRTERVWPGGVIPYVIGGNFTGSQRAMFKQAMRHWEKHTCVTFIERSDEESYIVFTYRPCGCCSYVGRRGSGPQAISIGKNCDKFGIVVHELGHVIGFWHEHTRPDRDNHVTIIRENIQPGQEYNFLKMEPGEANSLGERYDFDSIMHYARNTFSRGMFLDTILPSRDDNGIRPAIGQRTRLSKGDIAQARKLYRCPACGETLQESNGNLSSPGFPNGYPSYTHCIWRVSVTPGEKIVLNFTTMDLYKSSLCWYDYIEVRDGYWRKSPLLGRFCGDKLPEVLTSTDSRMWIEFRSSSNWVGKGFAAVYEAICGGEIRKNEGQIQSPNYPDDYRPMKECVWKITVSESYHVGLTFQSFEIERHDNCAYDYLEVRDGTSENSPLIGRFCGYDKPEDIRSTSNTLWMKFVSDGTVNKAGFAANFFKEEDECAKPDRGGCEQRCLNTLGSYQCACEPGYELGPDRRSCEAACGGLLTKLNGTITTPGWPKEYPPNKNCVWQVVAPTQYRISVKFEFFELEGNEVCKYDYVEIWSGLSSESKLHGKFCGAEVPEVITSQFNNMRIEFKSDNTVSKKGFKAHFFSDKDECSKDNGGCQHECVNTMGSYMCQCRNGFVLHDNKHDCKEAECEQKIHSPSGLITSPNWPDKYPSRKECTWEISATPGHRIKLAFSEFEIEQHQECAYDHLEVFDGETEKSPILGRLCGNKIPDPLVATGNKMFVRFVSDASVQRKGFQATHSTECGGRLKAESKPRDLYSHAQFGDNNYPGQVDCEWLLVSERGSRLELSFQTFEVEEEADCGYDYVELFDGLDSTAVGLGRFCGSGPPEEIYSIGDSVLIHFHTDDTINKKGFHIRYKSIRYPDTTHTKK

[3] = target: T2, Bone morphogenetic protein 1; assay: Inhibition of C-terminal FLAG-6x-His epitope tagged and N-terminal human RAGE signal sequence tagged human BMP1 (23 to 721 amino acids) expressed in CHO-E1 cells pre-incubated for 10 mins before promyostatin peptide substrate addition and measured after 60 mins using 0.5 nM BMP1 by FRET based assay; type: cell-based

Row | SMILES | IC50 (Tolloid-like protein 2) [nM] | IC50 [1] [nM] | IC50 [2] [nM] | IC50 (Tolloid-like protein 1) [nM] | IC50 [3] [nM]
1 | CCCCC[C@@H](C(=O)NCNC(=O)c1ccc(-c2cc(O)cc(OCC)c2)o1)[C@@H](CC)N(O)C=O | < 794 | < 3980 | < 200 | < 398 | < 126
2 | CCCCC[C@@H](C(=O)NCNC(=O)c1ccc(-c2cc(OCC)cc(C(F)(F)C(=O)O)c2)o1)[C@@H](CC)N(O)C=O | < 794 | < 3980 | < 200 | < 398 | < 126
3 | CCCCC[C@@H](C(=O)NCNC(=O)c1ccc(-c2cc(CNCP(=O)(O)O)cc(OCC)c2)o1)[C@@H](CC)N(O)C=O | < 794 | < 3980 | < 200 | < 398 | < 126
4 | CCCCC[C@H](CN(O)C=O)C(=O)NCNC(=O)c1ccc(-c2ccc(F)c(C(=O)O)c2)o1 | < 794 | < 3980 | < 200 | < 398 | < 126
5 | CCCCC[C@H](CN(O)C=O)C(=O)NCNC(=O)c1ccc(-c2cc(OC)cc(C(=O)O)c2)o1 | < 794 | < 3980 | < 200 | < 398 | < 126
6 | CCCCC[C@H](CN(O)C=O)C(=O)NCNC(=O)c1ccc(-c2cc(OCC)cc(C(=O)OC)c2)o1 | < 794 | < 3980 | < 200 | < 398 | < 126
7 | CCCCC[C@@H](C(=O)NCNC(=O)c1ccc(-c2ccc(C(=O)O)c(O)c2)o1)[C@@H](CC)N(O)C=O | < 794 | < 3980 | < 200 | < 398 | < 126
8 | CCCCC[C@@H](C(=O)NCNC(=O)c1ccc(-c2cc(OCC)cc(C(=O)NC(CO)(CO)CO)c2)o1)[C@@H](CC)N(O)C=O | < 794 | < 3980 | < 200 | < 398 | < 126
9 | CCCCC[C@@H](C(=O)NCNC(=O)c1ccc(-c2ccc(C(=O)N[C@H](CC(=O)O)C(=O)O)cc2)o1)[C@@H](CC)N(O)C=O | < 794 | < 3980 | < 200 | < 398 | < 126
10 | CCCCC[C@H](CN(O)C=O)C(=O)NCNC(=O)c1ccc(-c2ccc(O)c(C(=O)O)c2)o1 | < 794 | < 3980 | < 200 | < 398 | < 126
11 | CCCCC[C@H](CN(O)C=O)C(=O)NCNC(=O)c1ccc(-c2cc(OC)ccc2OC)o1 | < 794 | < 3980 | < 200 | < 398 | < 126
12 | CC[C@H]([C@@H](CCc1ccc(F)cc1F)C(=O)NCNC(=O)c1ccc(-c2cc(OCC(=O)O)cc(C(=O)O)c2O)o1)N(O)C=O | < 794 | < 3980 | < 200 | < 398 | < 126
13 | CCCCC[C@H](CN(O)C=O)C(=O)NCNC(=O)c1ccc(-c2cccc(OCC(F)F)c2)o1 | < 794 | < 3980 | < 200 | < 398 | < 126
14 | CCCCC[C@@H](C(=O)NCNC(=O)c1ccc(-c2ccc(C(=O)NCP(=O)(O)O)c(C)c2)o1)[C@@H](CC)N(O)C=O | < 794 | < 3980 | < 200 | < 398 | < 126
15 | CCCCC[C@@H](C(=O)NCNC(=O)c1ccc(-c2cccc(C(=O)N[C@@H](CC(=O)O)C(=O)O)c2)o1)[C@@H](CC)N(O)C=O | < 794 | < 3980 | < 200 | < 398 | < 126
16 | CCCCC[C@H](CN(O)C=O)C(=O)NCNC(=O)c1ccc(-c2cccc(C(=O)OC)c2)o1 | < 794 | < 3980 | < 200 | < 398 | < 126
17 | CCCCC[C@@H](C(=O)NCNC(=O)c1ccc(-c2cc(OCC)cc(C(=O)N(CC(=O)O)CC(=O)O)c2)o1)[C@@H](CC)N(O)C=O | < 794 | < 3980 | < 200 | < 398 | < 126
18 | CCCCC[C@H](CN(O)C=O)C(=O)NCNC(=O)c1ccc(-c2cccc(C(C)C(=O)O)c2)o1 (stereo not given in full) | < 794 | < 3980 | < 200 | < 398 | < 126
19 | CCCCC[C@@H](C(=O)NCNC(=O)c1ccc(-c2cc(OCC)cc(C(=O)NCC[N+](C)(C)C)c2)o1)[C@@H](CC)N(O)C=O | < 794 | < 3980 | < 200 | < 398 | < 126
20 | CCCCC[C@@H](C(=O)NCNC(=O)c1ccc(-c2ccc(C3(C(=O)O)CC3)cc2)o1)[C@@H](CC)N(O)C=O | < 794 | < 3980 | < 200 | < 398 | < 126
21 | CCCCC[C@H](CN(O)C=O)C(=O)NCNC(=O)c1ccc(-c2ccc3cnn(C)c3c2)o1 | < 794 | < 3980 | < 200 | < 398 | < 126
22 | CCCCC[C@@H](C(=O)NCNC(=O)c1ccc(-c2cc(OCC)cc(P(=O)(O)OC)c2)o1)[C@@H](CC)N(O)C=O | < 794 | < 3980 | < 200 | < 398 | < 126
23 | CCCCC[C@@H](C(=O)NCNC(=O)c1ccc(-c2ccc(F)c(CC(=O)O)c2)o1)[C@@H](CC)N(O)C=O | < 794 | < 3980 | < 200 | < 398 | < 126
24 | CCCCC[C@@H](C(=O)NCNC(=O)c1ccc(-c2ccc(C(=O)N[C@@H](CC(=O)O)C(=O)O)cc2)o1)[C@@H](CC)N(O)C=O | < 794 | < 3980 | < 200 | < 398 | < 126
25 | CCCCC[C@@H](C(=O)NCNC(=O)c1ccc(-c2ccc(C(=O)N[C@@H](CCC(=O)O)C(=O)O)c(OCC)c2)o1)[C@@H](CC)N(O)C=O | < 794 | < 3980 | < 200 | < 398 | < 126
26 | CCOc1cc(C(=O)O)c(O)c(-c2ccc(C(=O)NCNC(=O)[C@H](CCc3ccccc3)[C@@H](CC)N(O)C=O)o2)c1 | < 794 | < 3980 | < 200 | < 398 | < 126
